Assays:
[1] = target: T1, NF-κB p65 (Homo sapiens, UniProt Q04206); experiment: Intracellular p65-NF-κB ELISA (DNA-binding activity); type: cell-based
T1 construct: endogenous in cells; host or cells: THP1-Blue NF-κB cells
Text: To determine NF-κB p65 transcription factor levels by enzyme-linked immunosorbent assay (ELISA), an assay kit was used (Abcam, ab133112, Cambridge, UK). […] The supernatants were collected and used for the determination of intracellular p65-NF-κB by ELISA.
In this assay, a specific double-stranded DNA (dsDNA) sequence containing the NF-κB p65 response element is immobilized onto the wells of a 96-well plate. NF-κB p65 present in the sample binds specifically to these response elements. Bound p65 is subsequently detected using a primary antibody specific for NF-κB p65, followed by a horseradish peroxidase (HRP)-conjugated secondary antibody. The relevant background values were subtracted from the measured values. Absorbance was measured at 450 nm using an […] 200 PRO microplate reader (Tecan, Switzerland).

[2] = target: T2, IL-6R (Homo sapiens, UniProt P08887); experiment: ELISA assay IL-6R; type: binding; settings: 500 pg/mL IL-6R
T2 construct: purchased PeproTech, Thermo Fisher Scientific
Description: (§1) Human ELISA kits for IL-6, IL-6R, and IL-8 (Sigma-Aldrich, Merck, Germany) were used to quantify cytokine levels after treatment with complex 3 or 4. Briefly, 96-well plates precoated with specific antibodies were used to capture IL-6, IL-6R, and IL-8 from samples. […] Each sample was supplemented with 500 pg/mL of IL-6/IL-6R/IL-8. Positive control wells contained only the IL-6/IL-6R/IL-8 standard (PeproTech, Thermo Fisher Scientific, Waltham, Massachusetts, USA). […] After incubation, wells were washed, and biotinylated antihuman antibodies were added, followed by washing and addition of HRP-conjugated streptavidin. Finally, the TMB substrate was added to develop a color proportional to the cytokine concentration, and the reaction was stopped with the stop solution. Absorbance was measured at 450 nm using an […] 200 PRO microplate reader (TECAN, Switzerland).

[3] = test system: TR146; experiment: Colony formation assay; type: cell-based, human; settings: TR146, 24 h treatment at IC50
Description: (§2) Cells were seeded in six-well plates at a density of 100,000 cells per well (10,000 cells/200 μL) and grown for 24 h. […] Subsequently, cells were reseeded in new six-well plates at a density of 500 cells per well and grown for approximately 2 weeks. The cell culture medium was replaced every 2–3 days. When visible colonies appeared in the six-well plates, the culture was terminated, and the cells were washed twice with ice-cold PBS. The cells were then fixed with ice-cold methanol for 10 min and stained with 0.5% crystal violet solution for 30 min at room temperature. Experiments were performed in four independent replicates. The results were analyzed using the ImageJ plugin ColonyArea, which is optimized for standard analysis of colony formation assays. The plugin processes each well individually and determines not the number of colonies, but the area of the well covered by cells, also considering staining intensity.

[4] = test system: HGF; experiment: Colony formation assay; type: cell-based, human; settings: 24 h treatment at IC50
Description: as §2

[5] = test system: Detroit 562; experiment: Colony formation assay; type: cell-based, human; settings: Detroit 562, 24 h treatment at IC50
Description: as §2

[6] = test system: CAL 27; experiment: Colony formation assay; type: cell-based, human; settings: CAL 27, 24 h treatment at IC50
Description: as §2

[7] = test system: FaDu; experiment: Colony formation assay; type: cell-based, human; settings: 24 h treatment at IC50
Description: as §2

[8] = target: T3, IL-6 (Homo sapiens, UniProt P05231); experiment: Sandwich ELISA assay IL-6; type: binding; settings: 15 μM, 500 pg/mL IL-6
T3 construct: purchased PeproTech, Thermo Fisher Scientific
Description: as §1

T1 sequence (Q04206 whole entry): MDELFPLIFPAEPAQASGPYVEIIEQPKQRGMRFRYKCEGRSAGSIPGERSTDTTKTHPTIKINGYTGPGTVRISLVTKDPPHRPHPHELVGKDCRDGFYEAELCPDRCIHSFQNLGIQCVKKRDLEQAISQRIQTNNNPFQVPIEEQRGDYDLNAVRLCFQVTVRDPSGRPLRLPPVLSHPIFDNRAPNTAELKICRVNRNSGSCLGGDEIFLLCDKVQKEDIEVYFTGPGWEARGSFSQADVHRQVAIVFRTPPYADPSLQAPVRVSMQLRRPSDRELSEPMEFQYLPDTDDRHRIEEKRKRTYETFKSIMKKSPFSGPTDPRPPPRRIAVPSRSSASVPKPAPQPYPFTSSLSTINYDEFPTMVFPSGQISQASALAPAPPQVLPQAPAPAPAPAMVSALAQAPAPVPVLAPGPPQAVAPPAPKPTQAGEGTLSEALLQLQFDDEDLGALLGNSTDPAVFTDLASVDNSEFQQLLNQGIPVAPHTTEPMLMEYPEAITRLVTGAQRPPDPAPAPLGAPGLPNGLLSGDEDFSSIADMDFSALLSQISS
T2 sequence (P08887 20-468): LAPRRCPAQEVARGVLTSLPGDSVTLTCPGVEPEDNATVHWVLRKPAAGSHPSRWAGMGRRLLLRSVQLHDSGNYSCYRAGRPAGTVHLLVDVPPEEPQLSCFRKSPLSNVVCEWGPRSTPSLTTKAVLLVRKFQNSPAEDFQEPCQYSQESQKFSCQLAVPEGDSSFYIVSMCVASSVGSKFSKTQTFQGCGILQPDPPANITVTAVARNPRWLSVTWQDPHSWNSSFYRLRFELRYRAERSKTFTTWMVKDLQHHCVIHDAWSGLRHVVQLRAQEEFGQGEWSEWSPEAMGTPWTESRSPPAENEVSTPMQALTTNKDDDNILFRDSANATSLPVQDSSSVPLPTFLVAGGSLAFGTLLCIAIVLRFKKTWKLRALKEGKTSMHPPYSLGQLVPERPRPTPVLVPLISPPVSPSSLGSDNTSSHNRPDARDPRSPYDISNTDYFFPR
T3 sequence (P05231 30-212): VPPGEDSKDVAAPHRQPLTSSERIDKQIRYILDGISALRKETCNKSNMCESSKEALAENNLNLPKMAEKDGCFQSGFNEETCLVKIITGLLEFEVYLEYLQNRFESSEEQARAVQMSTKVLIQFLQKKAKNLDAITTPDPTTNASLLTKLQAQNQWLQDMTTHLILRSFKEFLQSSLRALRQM

Cc1ccc(C(C)C)cc1.Cc1ccc(C(C)C)cc1.O=C1C(=Cc2ccnc3ccccc23)COCC1=Cc1ccnc2ccccc12.[Cl][Ru][Cl].[Cl][Ru][Cl] [Complex 3]
Reduction of NF-κB (p65) levels ([1]; 1 μM, cellular extracts of THP1-Blue NF-κB cells, LPS): approximately 70%
NF-κB (p65) detected in cellular extracts ([1]; 8 μM): less than 5%
Decrease in IL-6R concentration ([2]; 8 μM): about 15%
Cloning efficiency (%) [3]: 66 ± 19%
Cloning efficiency (%) [4]: 95 ± 6%
Cloning efficiency (%) [5]: 57 ± 8%
Cloning efficiency (%) [6]: 39 ± 7%
Cloning efficiency (%) [7]: 73 ± 15%

Cc1ccc(C(C)C)cc1.Cc1ccc(C(C)C)cc1.O=C1C(=Cc2cccnc2)CCC1=Cc1cccnc1.[Cl][Ru][Cl].[Cl][Ru][Cl] [Complex 4]
Decrease of IL-6 concentration [8]: approximately 30%
Decrease in IL-6R concentration ([2]; 15 μM): about 15%

— PMC12754617, “Ruthenium-enhanced curcumin derivatives target tumor growth and cancer-related inflammation in head and neck cancer models” (Frontiers in Oncology, 2025)
